Laboratory results taken from patent US20210317092A1 (BAYER PHARMA AKTIENGESELLSCHAFT, priority 2016, published 2021).
Read-outs that look alike come from different tables or passages of the source.

Key:
[1] = molecular target: T1, human Bradykinin B1 receptor (Homo sapiens, UniProt P46663); experiment: Calcium flux Assay (FLIPR) with recombinant CHO-K1 cells expressing human Bradykinin B1 receptor, in presence (hB1 IC50) or absence (hB1 free IC50) of 0.1% BSA; format: cell-based
T1 construct: host or cells: CHO-K1
T1 sequence (P46663 1-353): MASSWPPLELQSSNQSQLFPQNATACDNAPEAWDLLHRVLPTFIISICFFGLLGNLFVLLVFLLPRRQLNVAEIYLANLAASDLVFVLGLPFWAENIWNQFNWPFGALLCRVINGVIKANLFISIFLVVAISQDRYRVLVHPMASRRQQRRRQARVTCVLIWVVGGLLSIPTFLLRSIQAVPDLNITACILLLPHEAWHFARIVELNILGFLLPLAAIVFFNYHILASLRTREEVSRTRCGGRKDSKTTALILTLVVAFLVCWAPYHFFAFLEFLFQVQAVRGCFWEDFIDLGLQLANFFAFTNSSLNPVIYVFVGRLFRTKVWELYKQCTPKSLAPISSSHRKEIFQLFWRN

[2] = molecular target: T2, native human Bradykinin B1 receptor (Homo sapiens, UniProt P46663); experiment: Calcium flux Assay (FLIPR) with human fibroblasts expressing Bradykinin B1 receptor (hB1 IMR-90); format: cell-based; conditions: IMR-90 human fibroblasts expressing native Bradykinin B1 receptor
T2 construct: which express native human Bradykinin B1 receptor after induction with human IL-10; Coriell Institute; host or cells: IMR-90 human foetal lung fibroblasts, cytokine-induced
T2 sequence (P46663 1-353): T1 sequence (P46663 1-353)
In short: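 IMR-90 human foetal lung fibroblasts induced with 0.35 ng/mL […] for 3 h, Fluo-4/AM-loaded, preincubated with compound (8 concentrations, triplicate) for 30 min at 28 °C, then challenged with Lys-(Des-Arg)-bradykinin at EC90. Ca2+ fluorescence was read at 538 nm; full inhibition set by 20 µM Lys-(Des-Arg-Leu)-bradykinin; IC50 derived.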

[3] = in absence of 0.1% BSA, read-out: hB1 free IC50
[4] = in presence of 0.1% BSA, read-out: hB1 IC50

IC50 [1, 3] [nM]	IC50 [1, 4] [nM]	IC50 [2] [nM]	Compound
7.72	34.5	33.8	CCOc1ccc(-c2cc(O)c(NC(=O)C3(c4cccc(Cl)c4)CC3)cc2-c2nnn[nH]2)cn1 [Example 263, 1-(3-chlorophenyl)-N-[4-(6-ethoxypyridin-3-yl)-2-hydroxy-5-(1H-tetrazol-5-yl)phenyl]cyclopro-panecarboxa-mide]
2.63		2.28	Cc1cc(-c2c(F)cc(NC(=O)C3(c4ccc(C(F)(F)F)cc4F)CC3)cc2-c2nnn[nH]2)ccn1 [Example 265, N-[3-fluoro-4-(2-methylpyridin-4-yl)-5-(1H-tetrazol-5-yl)phenyl]-1-[2-fluoro-4-(trifluoromethyl)phenyl]cyclopro-panecarboxamide]
3.45		2.38	Cc1ccc(-c2c(F)cc(NC(=O)C3(c4ccc(C(F)(F)F)cc4F)CC3)cc2-c2nnn[nH]2)cn1 [Example 266, N-[3-fluoro-4-(6-methylpyridin-3-yl)-5-(1H-tetrazol-5-yl)phenyl]-1-[2-fluoro-4-(trifluoromethyl)phenyl]cyclopro-panecarboxamide]
19		48.3	O=C(Nc1cc(F)c(-c2ccnc(C(F)(F)F)c2)c(-c2nnn[nH]2)c1)C1(c2ccc(C(F)(F)F)cc2F)CC1 [Example 267, N-{3-fluoro-5-(1H-tetrazol-5-yl)-4-[2-(trifluoromethyl)pyridin-4-yl]phenyl}-1-[2-fluoro-4-(trifluoromethyl)phenyl]cyclopro-panecarboxamide]
23.1		16.3	CC(F)(F)c1ccc(-c2ccc(NC(=O)C3(c4ccc(F)c(F)c4)CC3)cc2-c2nnn[nH]2)cn1 [Example 279, N-{4-[6-(1,1-difluoroethyl)py-ridin-3-yl]-3-(1H-tetrazol-5-yl)phenyl}-1-(3,4-difluorophenyl)cy-clopropanecar-boxamide]
6		6.17	CC(F)(F)c1ccc(-c2ccc(NC(=O)C3(c4ccc(C(F)(F)F)cc4F)CC3)cc2-c2nnn[nH]2)cn1 [Example 281, N-{4-[6-(1,1-difluoroethyl)py-ridin-3-yl]-3-(1H-tetrazol-5-yl)phenyl}-1-[2-fluoro-4-(trifluoromethyl)phenyl]cyclopro-panecarboxamide]
22.5		2.36	Cc1ccc(C2(C(=O)Nc3ccc(-c4ccc(C(F)(F)F)nc4)c(-c4nnn[nH]4)c3)CC2)c(F)c1 [Example 291, 1-(2-fluoro-4-methylphenyl)-N-{3-(1H-tetrazol-5-yl)-4-[6-(trifluoromethyl)pyridin-3-yl]phenyl}cyclopro-panecarboxa-mide]
297		266	COc1cc(C(F)(F)F)ccc1C1(C(=O)Nc2ccc(-c3ccc(C(F)(F)F)nc3)c(-c3nnn[nH]3)c2)CC1 [Example 293, 1-[2-methoxy-4-(trifluoromethyl)phenyl]-N-{3-(1H-tetrazol-5-yl)-4-[6-(trifluoromethyl)pyridin-3-yl]phenyl}cyclopro-panecarboxa-mide]
5.96		6.13	O=C(Nc1ccc(-c2ccc(C(F)(F)F)nc2)c(-c2nnn[nH]2)c1)C1(c2ccc(OC(F)(F)F)cc2F)CC1 [Example 294, 1-[2-fluoro-4-(trifluoromethoxy)phenyl]-N-{3-(1H-tetrazol-5-yl)-4-[6-(trifluoromethyl)pyridin-3-yl]phenyl}cyclopro-panecarboxa-mide]
24.1		33.8	O=C(Nc1ccc(-c2ccnc(C(F)(F)F)c2)c(-c2nnn[nH]2)c1)C1(c2ccc(OC(F)(F)F)cc2F)CC1 [Example 295, 1-[2-fluoro-4-(trifluoromethoxy)phenyl]-N-{3-(1H-tetrazol-5-yl)-4-[2-(trifluoromethyl)pyridin-4-yl]phenyl}cyclopro-panecarboxa-mide]
20	22.3	45.2	Cc1cncc(-c2ccc(NC(=O)C3(c4cccc(Cl)c4)CC3)cc2-c2nnn[nH]2)c1 [Example 326, 1-(3-chlorophenyl)-N-[4-(5-methylpyridin-3-yl)-3-(1H-tetrazol-5-yl)phenyl]cyclopro-panecarboxa-mide]
71.2	70.9	164	COc1cnccc1-c1ccc(NC(=O)C2(c3cccc(Cl)c3)CC2)cc1-c1nnn[nH]1 [Example 327, 1-(3-chlorophenyl)-N-[4-(3-methoxypyridin-4-yl)-3-(1H-tetrazol-5-yl)phenyl]cyclopro-panecarboxa-mide]
13.5	77.9	127	CCOc1ncc(-c2ccc(NC(=O)C3(c4cccc(Cl)c4)CC3)cc2-c2nnn[nH]2)cc1Cl [Example 328, N-[4-(5-chloro-6-ethoxypyridin-3-yl)-3-(1H-tetrazol-5-yl)phenyl]-1-(3-chlorophenyl)cy-clopropanecarbox-amide]
85	90.5	70.3	O=C(Nc1ccc(-c2ccc(N3CCOCC3)nc2)c(-c2nnn[nH]2)c1)C1(c2cccc(Cl)c2)CC1 [Example 329, 1-(3-chlorophenyl)-N-{4-[6-(morpholin-4-yl)pyridin-3-yl]-3-(1H-tetrazol-5-yl)phenyl}cyclopro-panecarboxa-mide]
8.98	20.4	6.03	CCc1ccc(-c2ccc(NC(=O)C3(c4cccc(Cl)c4)CC3)cc2-c2nnn[nH]2)cn1 [Example 338, 1-(3-chlorophenyl)-N-[4-(6-ethylpyridin-3-yl)-3-(1H-tetrazol-5-yl)phenyl]cyclopro-panecarboxa-mide]
265	161	108	CC(C)(O)c1ccc(-c2ccc(NC(=O)C3(c4cccc(Cl)c4)CC3)cc2-c2nnn[nH]2)cn1 [Example 340, 1-(3-chlorophenyl)-N-{4-[6-(2-hydroxypropan-2-yl)pyridin-3-yl]-3-(1H-tetrazol-5-yl)phenyl}cyclopro-panecarboxa-mide]
259	113	110	CC(C)(O)Cc1ccc(-c2ccc(NC(=O)C3(c4cccc(Cl)c4)CC3)cc2-c2nnn[nH]2)cn1 [Example 343, 1-(3-Chlorophenyl)-N-{4-[6-(2-hydroxy-2-methylpropyl)pyridin-3-yl]-3-(1H-tetrazol-5-yl)phenyl}cyctopropanecarboxamide]

Compound	IC50 [1, 3] [nM]	IC50 [1, 4] [nM]	IC50 [2] [nM]
N-[4-(6- ethoxypyridin-3- yl)-3-(1H- tetrazol-5- yl)phenyl]-1-(4- ethylphenyl) cyclopropane- carboxamide [Example 69]	6.75	30.9	16.2
